Source: patent US8461328B2, “Tricyclic heterocyclic compounds, compositions and methods of use thereof” (Genentech, Inc., priority 2010, dated 2013)

Tests used:
Assay type in all cases: biochemical
JAK1 = molecular target: T1, JAK1 (Homo sapiens, UniProt P23458); test: JAK1 inhibition (Table 4); conditions: read-out: JAK1 Ki
T1 construct: made in house; host or cells: SF9 insect cells (baculovirus)

JAK2 = molecular target: T2, JAK2 (Homo sapiens, UniProt O60674); test: JAK2 inhibition (Table 4); conditions: read-out: JAK2 Ki
T2 construct: made in house; host or cells: SF9 insect cells (baculovirus)

JAK3 = molecular target: T3, JAK3 (Homo sapiens, UniProt P52333); test: JAK3 inhibition (Table 4); conditions: read-out: JAK3 Ki
T3 construct: made in house; host or cells: SF9 insect cells (baculovirus)

TYK2 = molecular target: T4, TYK2 (Homo sapiens, UniProt P29597); test: TYK2 inhibition (Table 4)
T4 construct: made in house; host or cells: SF9 insect cells (baculovirus)
T4 sequence (P29597 873-1187): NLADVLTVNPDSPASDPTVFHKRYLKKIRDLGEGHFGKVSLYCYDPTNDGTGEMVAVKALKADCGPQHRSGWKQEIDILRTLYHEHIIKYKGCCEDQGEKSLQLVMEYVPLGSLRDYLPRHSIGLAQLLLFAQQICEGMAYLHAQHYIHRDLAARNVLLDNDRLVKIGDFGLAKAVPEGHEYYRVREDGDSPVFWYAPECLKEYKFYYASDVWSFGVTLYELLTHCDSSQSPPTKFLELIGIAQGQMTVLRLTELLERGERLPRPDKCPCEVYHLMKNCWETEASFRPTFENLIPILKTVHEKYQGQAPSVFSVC

T1 sequence (P23458 852-1154): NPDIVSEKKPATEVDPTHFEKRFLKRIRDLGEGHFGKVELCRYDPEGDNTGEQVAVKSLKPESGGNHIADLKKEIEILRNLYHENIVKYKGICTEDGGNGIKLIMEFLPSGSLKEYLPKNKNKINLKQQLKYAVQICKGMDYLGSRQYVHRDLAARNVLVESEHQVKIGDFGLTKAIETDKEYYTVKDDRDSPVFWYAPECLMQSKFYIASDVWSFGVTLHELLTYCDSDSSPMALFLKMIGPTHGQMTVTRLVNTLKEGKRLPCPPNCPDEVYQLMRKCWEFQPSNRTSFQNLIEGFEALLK
T2 sequence (O60674 812-1132): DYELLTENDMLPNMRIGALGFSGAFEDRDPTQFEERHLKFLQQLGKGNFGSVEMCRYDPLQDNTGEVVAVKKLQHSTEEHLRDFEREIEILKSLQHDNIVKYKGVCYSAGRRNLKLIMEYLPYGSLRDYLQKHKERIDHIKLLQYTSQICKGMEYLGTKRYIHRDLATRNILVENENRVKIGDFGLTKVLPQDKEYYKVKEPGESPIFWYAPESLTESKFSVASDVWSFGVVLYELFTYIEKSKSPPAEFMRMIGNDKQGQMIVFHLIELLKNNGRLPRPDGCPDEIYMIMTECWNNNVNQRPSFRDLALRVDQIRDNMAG
T3 sequence (P52333 783-1124): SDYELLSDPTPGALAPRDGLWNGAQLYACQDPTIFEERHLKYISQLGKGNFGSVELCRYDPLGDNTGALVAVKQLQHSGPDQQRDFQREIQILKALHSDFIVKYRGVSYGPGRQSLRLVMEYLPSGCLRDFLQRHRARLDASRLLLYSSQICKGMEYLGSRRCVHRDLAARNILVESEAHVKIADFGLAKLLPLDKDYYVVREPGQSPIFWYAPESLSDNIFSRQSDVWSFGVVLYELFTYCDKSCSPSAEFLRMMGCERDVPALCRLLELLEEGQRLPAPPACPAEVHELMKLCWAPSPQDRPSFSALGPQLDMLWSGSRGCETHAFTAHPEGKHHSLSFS

## (1-Cyclohexyl-1,6-dihydro-1,2,3,5,6-tetraaza-as-indacen-2-yl)-methanol-d11 [Example 674]
JAK1
  Ki: 1.13 nM
JAK2
  Ki: 7.11 nM
JAK3
  Ki: 10.5 nM
TYK2
  Ki: 1.87 nM
